Assay [1] concerns the target T1, Human KOR (Homo sapiens, UniProt P41145).
T1 construct: expressed in transfected cells; host or cells: HEK-293T
Briefly: cell-based.

Assay [2] has as its target T2, Human MOR (Homo sapiens, UniProt P35372).
T2 construct: expressed in transfected cells; host or cells: HEK-293T
Put plainly: cell-based.

The target in assay [3] is T3, Human DOR (Homo sapiens, UniProt P41143).
T3 construct: expressed in transfected cells; host or cells: HEK-293T
Put plainly: cell-based.

For assay [4], the target named is T1, Human KOR. Briefly: BRET functional assay, inhibition of reference agonist U-50,488 (antagonist mode), human KOR. In kind it is cell-based. Background: In BRET a luciferase serves as donor, and the signal depends on an acceptor being close.

Each structure is given as a SMILES string. Entries after “also recorded” stand apart in the source; their conditions may differ. Some results are limits rather than exact numbers.

T2 sequence (P35372 whole entry): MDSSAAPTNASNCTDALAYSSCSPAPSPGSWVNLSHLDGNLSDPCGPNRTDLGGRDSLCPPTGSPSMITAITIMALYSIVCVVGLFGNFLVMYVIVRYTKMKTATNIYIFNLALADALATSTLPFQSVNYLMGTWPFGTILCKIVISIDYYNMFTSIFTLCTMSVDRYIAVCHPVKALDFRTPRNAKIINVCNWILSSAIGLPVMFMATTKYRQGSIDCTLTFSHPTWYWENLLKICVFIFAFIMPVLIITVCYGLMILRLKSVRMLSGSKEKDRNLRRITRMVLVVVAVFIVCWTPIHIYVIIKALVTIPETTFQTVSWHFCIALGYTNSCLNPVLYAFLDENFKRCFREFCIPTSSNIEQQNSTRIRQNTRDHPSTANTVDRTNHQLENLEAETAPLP
T3 sequence (P41143 whole entry): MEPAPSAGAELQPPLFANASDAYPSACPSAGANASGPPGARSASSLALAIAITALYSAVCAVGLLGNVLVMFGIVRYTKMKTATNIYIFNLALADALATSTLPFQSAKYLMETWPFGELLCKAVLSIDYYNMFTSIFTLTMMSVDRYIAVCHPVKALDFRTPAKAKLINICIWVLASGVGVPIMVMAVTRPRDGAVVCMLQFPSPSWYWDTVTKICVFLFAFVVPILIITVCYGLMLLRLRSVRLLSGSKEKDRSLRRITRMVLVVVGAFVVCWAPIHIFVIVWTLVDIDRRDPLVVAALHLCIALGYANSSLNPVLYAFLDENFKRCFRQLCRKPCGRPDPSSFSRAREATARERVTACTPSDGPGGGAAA
T1 sequence (P41145 whole entry): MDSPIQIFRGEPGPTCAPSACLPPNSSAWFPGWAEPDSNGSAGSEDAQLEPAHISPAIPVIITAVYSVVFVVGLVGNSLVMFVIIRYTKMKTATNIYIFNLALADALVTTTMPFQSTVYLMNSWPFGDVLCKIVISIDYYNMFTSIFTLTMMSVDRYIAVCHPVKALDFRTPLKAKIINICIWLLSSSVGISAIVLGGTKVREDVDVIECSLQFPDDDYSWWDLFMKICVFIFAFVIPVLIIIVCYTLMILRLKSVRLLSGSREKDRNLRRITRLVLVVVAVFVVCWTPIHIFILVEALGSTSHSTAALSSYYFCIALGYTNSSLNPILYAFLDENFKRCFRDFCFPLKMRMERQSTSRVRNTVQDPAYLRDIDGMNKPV

As usually defined, the EC50 is the concentration giving half of the maximal effect. The IC50 is the concentration needed to halve the response being measured. In the case of `CCC1CC2CC3c4oc5ccc(O)cc5c4C[C@@H](CC)N(C2)C13` (stereo partly drawn) [α-endo-52g], in assay [1], the “agonist activity at KOR (in words)” value is “not active as agonist; also recorded: no agonist activity”. Besides, the EC50 in assay [1] (EC50 at indicated opioid receptor, Human KOR) was above 100 µM; in assay [2] (EC50 at indicated opioid receptor, Human MOR), above 100 µM; in assay [3] (EC50 at indicated opioid receptor, Human DOR), above 100 µM. For the same compound, the “agonist activity at MOR (in words)” value in assay [2] is “not active as agonist”. The “agonist activity at DOR (in words)” value in assay [3] is reported as “not active as agonist”. In addition, in assay [4], the IC50 was found to be 8.2 ± 0.5 µM. The “antagonist activity at KOR (in words)” value in assay [4] was “KOR antagonist”.

`CC[C@@H]1Cc2c(oc3ccc(O)cc23)C2CC3CCC2N1C3` (stereo partly drawn) [α-endo-60f]: the EC50 was above 10 µM in assay [1] (EC50, Human KOR); above 100 µM in assay [2] (EC50, Human MOR); above 100 µM in assay [3] (EC50, Human DOR).

For the compound `CC[C@H]1Cc2c(oc3ccc(O)cc23)C2CC3CCC2N1C3` (stereo partly drawn) [α-exo-60f], the EC50 in assay [1] (EC50, Human KOR) was below 10 µM; in assay [2] (EC50, Human MOR) it was below 10 µM; in assay [3] (EC50, Human DOR) it was below 10 µM.

The record behind these values is patent US11840541B2 (priority 2014, dated 2023).
